Data: ChEMBL document CHEMBL1135951, “Potential anxiolytic agents. Part 4: novel orally-active N(5)-substituted pyrido[1,2-a]benzimidazoles with high GABA-A receptor affinity” (Bioorg Med Chem Lett, 2002)

Key:
[1] = species on record: Mus musculus; experiment: Effective dose required for inhibition of pentylenetetrazole (PTZ)-induced seizures in mice perorally; assay type: functional; conditions: po
[2] = target: T1, GABA-A receptor; anion channel (Rattus norvegicus) (UniProt O09028+P15431+P18506+P18508+P19969+P20236+P23574+P23576+P28471+P28473+P30191+P62813+P63079+P63138+Q91ZM7+Q9ES14); experiment: Ratio of the binding in the absence and presence of GABA was determined.; assay type: protein-complex assay
[3] = target: GABA-A receptor; anion channel; experiment: In vitro affinity for BZD site on GABA-A receptor from rat cerebral cortex using radioligand [3H]flunitrazepam; assay type: tissue-based
[4] = species on record: Rattus norvegicus; experiment: Minimum effective dose required for anticonflict in rat perorally; assay type: functional; conditions: po, read-out: MED
[5] = tested on: Mus musculus; experiment: Effective dose required for inhibition of pentylenetetrazole (PTZ)-induced seizures in mice intraperitoneally; assay type: functional; conditions: ip
[6] = target: T1, GABA-A receptor; anion channel (Rattus norvegicus); experiment: Minimum effective dose required for anticonflict in rat intraperitoneally; assay type: functional
[7] = tested on: Rattus norvegicus; experiment: In vivo minimum effective dose required for anticonflict effect in rat perorally; assay type: functional; conditions: for minimal effective dose: Rattus norvegicus, po, read-out: MED
[8] = species on record: Mus musculus; experiment: Ratio of effective dose required for motor impairment in the horizontal screen to the inhibition of pentylenetetrazole (PTZ)-induced seizures in mice; assay type: functional
[9] = species on record: Rattus norvegicus; experiment: Ratio of minimum effective dose for potentiation of EtOH-induced sleep time to anticonflict effect in rat; assay type: functional
[10] = tested on: Mus musculus; experiment: In vivo effective dose required for inhibition of pentylenetetrazole (PTZ)-induced seizures in mice perorally; assay type: functional
[11] = species on record: Mus musculus; experiment: Effective dose required for motor impairment in the horizontal screen in mouse perorally; assay type: functional
[12] = tested on: Mus musculus; experiment: Effective dose required for motor impairment in the horizontal screen in mouse intraperitoneally; assay type: functional
[13] = tested on: Rattus norvegicus; experiment: In vivo minimum effective dose required for potentiation of EtOH-induced sleep time in rat; assay type: functional; conditions: for minimal effective dose: Rattus norvegicus, read-out: MED
[14] = tested on: Rattus norvegicus; experiment: In vivo minimum effective dose required for anticonflict in rat intraperitoneally; assay type: functional; conditions: for minimal effective dose: Rattus norvegicus, ip, read-out: MED
[15] = tested on: Mus musculus; experiment: In vivo effective dose required or inhibition of pentylenetetrazole (PTZ)-induced seizures in mice intraperitoneally; assay type: functional; conditions: ip
[16] = tested on: Mus musculus; experiment: In vivo effective dose required for inhibition of pentylenetetrazole (PTZ)-induced seizures in mice intraperitoneally; assay type: functional
[17] = species on record: Mus musculus; experiment: animal or person; conditions: po
[18] = species on record: Mus musculus; experiment: animal or person; conditions: ip
[19] = species on record: Rattus norvegicus; experiment: animal or person; conditions: po, read-out: MED
Description: Minimum effective dose required for anticonflict in rat after peroral administration of the compound

[20] = species on record: Rattus norvegicus; experiment: animal or person; conditions: ip, read-out: MED
Description: Minimum effective dose required for anticonflict in rat after intraperitoneal administration of the compound

[21] = species on record: Mus musculus; experiment: Effective dose required for inhibition of pentylenetetrazole (PTZ)-induced seizures in mice perorally; value ranges from 3 to 30; assay type: functional; conditions: po
[22] = tested on: Mus musculus; experiment: In vivo effective dose required in vivo for inhibition of pentylenetetrazole (PTZ)-induced seizures in mice perorally; assay type: functional; conditions: po
[23] = species on record: Mus musculus; experiment: Effective dose required for inhibition of pentylenetetrazole (PTZ)-induced seizures in mice perorally; value ranges from 0.3 to 3; assay type: functional; conditions: po
[24] = species on record: Rattus norvegicus; experiment: Minimum effective dose required for anticonflict in rat perorally; value ranges from 1 to 3; assay type: functional; conditions: po, read-out: MED
[25] = Mus musculus, po, read-out: ED50
[26] = Mus musculus, ip, read-out: ED50

Row | Structure (SMILES) | ED50 [1] [mg/kg] | GABA shift [2] | IC50 [3] [nM] | minimal effective dose [4] [mg/kg] | ED50 [5] [mg/kg] | MED [6] [mg/kg] | further results
1 | O=C1CCN2C(=C1C(=O)Nc1ccccc1F)N(CCO)c1cc(F)ccc12 | < 30 | 2.7 | 1.2 | > 10 | ≤ 1 | 10 | –
2 | O=C1CCN2C(=C1C(=O)Nc1ccccc1F)N(CCN1CCOCC1)c1cc(F)ccc12 | 30 | 2.2 | 6.1 | – | 1 | > 10 | –
3 | O=C1CCN2C(=C1C(=O)Nc1ccccc1F)N(CCCO)c1cc(F)ccc12 | 0.5 | 1.8 | 1.1 | 10 | 0.1 | 10 | –
4 | CCOCN1C2=C(C(=O)Nc3ccccc3F)C(=O)CCN2c2ccc(F)cc21 | 0.04 | 1.2 | 0.1 | 0.4 | 0.01 | 10 | minimal effective dose [7]: 0.4 mg/kg; Ratio [8]: 675; Ratio [9]: 1; ED50 ([10]; po): 0.04 mg/kg; ED50 [11, 25]: 27 mg/kg; ED50 [12, 26]: 0.3 mg/kg; minimal effective dose [13]: 0.3 mg/kg; minimal effective dose [14]: 10 mg/kg; ED50 [15]: 0.01 mg/kg
5 | CN(C)CCN1C2=C(C(=O)Nc3ccccc3F)C(=O)CCN2c2ccc(F)cc21 | ≤ 3 | 2.7 | 49.9 | 3 | 0.5 | < 10 | –
6 | COCCOCN1C2=C(C(=O)Nc3ccccc3F)C(=O)CCN2c2ccc(F)cc21 | 0.1 | 2.2 | 0.8 | 3 | 0.003 | < 10 | MED [7]: 3; Ratio [8]: 300; Ratio [9]: 1; ED50 [10]: 0.1; ED50 [11]: 30; ED50 [12]: 0.07; MED [13]: 3; MED [14]: <=10; ED50 [16]: 0.003
7 | COCCNCCN1C2=C(C(=O)Nc3ccccc3F)C(=O)CCN2c2ccc(F)cc21 | 1 | 1.8 | 7.4 | 10 | 1 | 10 | –
8 | CCOCN1C2=C(C(=O)Nc3c(F)cccc3F)C(=O)CCN2c2ccc(F)cc21 | 3 | 1.6 | 0.6 | > 10 | 1 | > 10 | –
9 | CCOCCN1C2=C(C(=O)Nc3ccccc3F)C(=O)CCN2c2ccc(F)cc21 | 0.3 | 3.2 | 0.5 | 1 | ≤ 1 | < 10 | –
10 | CN1C(=O)CN=C(c2ccccc2)c2cc(Cl)ccc21 [DIAZEPAM] | – | – | – | – | – | – | minimal effective dose [7]: 5 mg/kg; ED50 [17]: 0.5 mg/kg; ED50 [18]: 0.11 mg/kg; minimal effective dose [19]: > 10 mg/kg; ED50 ([10]; po): 0.5 mg/kg; ED50 [11, 25]: 6.3 mg/kg; ED50 [12, 26]: 0.1 mg/kg; minimal effective dose [20]: 5 mg/kg; minimal effective dose [13]: 5 mg/kg; minimal effective dose [14]: 5 mg/kg; ED50 [16, 26]: 0.3 mg/kg
11 | CCOCN1C2=C(C(=O)Nc3ccc(OC(=O)OC)cc3F)C(=O)CCN2c2ccc(F)cc21 | – | 3.2 | 4.3 | 1 | 1 | – | ED50 [21]: 3 mg/kg
12 | CCOCN1C2=C(C(=O)Nc3ccc(F)cc3F)C(=O)CCN2c2ccc(F)cc21 | < 3 | 2 | 1.2 | 0.1 | ≤ 1 | 0.1 | minimal effective dose [7]: 0.1 mg/kg; Ratio [8]: 3; Ratio [9]: 1; ED50 [11, 25]: 10 mg/kg; ED50 [12, 26]: < 1 mg/kg; ED50 [22]: < 3 mg/kg; minimal effective dose [13]: 0.1 mg/kg; minimal effective dose [14]: 0.1 mg/kg; ED50 [16, 26]: < 1 mg/kg
13 | O=C1CCN2C(=C1C(=O)Nc1ccccc1F)N(CCc1ccccn1)c1cc(F)ccc12 | 10 | 2 | 0.9 | > 10 | 0.3 | 10 | –
14 | CN(C)c1ccc(CCN2C3=C(C(=O)Nc4ccccc4F)C(=O)CCN3c3ccc(F)cc32)cc1 | < 30 | 1.3 | 8.5 | – | 1 | > 10 | –
15 | CN(C)CCCN1C2=C(C(=O)Nc3ccccc3F)C(=O)CCN2c2ccc(F)cc21 | 30 | 1.4 | 3.3 | > 10 | 3 | 10 | –
16 | O=C(Nc1ccccc1F)C1=C(O)CCn2c1nc1cc(F)ccc12 | > 30 | 1.8 | – | > 30 | ≤ 1 | 10 | –
17 | CCOCN1C2=C(C(=O)Nc3ccc(O)cc3F)C(=O)CCN2c2ccc(F)cc21 | – | 2 | 1.4 | – | – | 1 | ED50 [23]: 0.3 mg/kg; minimal effective dose [24]: 1 mg/kg
18 | O=C1CCN2C(=C1C(=O)Nc1ccccc1F)N(CCn1ccnc1)c1cc(F)ccc12 | 10 | 2.6 | 1.6 | > 10 | 1 | – | –
19 | NCCN1C2=C(C(=O)Nc3ccccc3F)C(=O)CCN2c2ccc(F)cc21 | 10 | 2.7 | 5.1 | 10 | 0.3 | 10 | –
20 | CCOCN1C2=C(C(=O)Nc3ccc(OC)cc3F)C(=O)CCN2c2ccc(F)cc21 | 0.3 | 2.2 | 0.4 | 0.03 | – | 0.1 | –
21 | CCOCCCN1C2=C(C(=O)Nc3ccccc3F)C(=O)CCN2c2ccc(F)cc21 | 0.3 | 1.6 | 0.3 | 1 | ≤ 1 | – | –
